According to patent US5017723A, “Substituted ethylamines, their preparation process, their use as medicine and their synthesising agents” (Jouveinal S.A., priority 1990, dated 1991):
Where two headings read alike, the source gives them in different places.

Assays:
bladder of the rat = experiment: Transvesical cystomanometry on wide awake rat (urological activity); type: in vivo, female rat; conditions: for change in vivo at 2.5 mg/kg: Rattus norvegicus, iv
Method: Studies by a similar method of operation, the compounds of the invention (I.A) which show a mu and kappa affinity also have an activity on certain functional parameters of the bladder of the rat which justifies their interest in the treatment of dysfunctions in the urinary tract.
The study carried out consists of transvesical cystomanometry on a wide awake rat. The following was measured during the storage and emission phases of urine under continuous intervesical perfusion of sterile physiological serum:
the "threshold pressure", which is the intervesical pressure immediately preceding the contraction phase of the detrusor
the volume of each urinary emission.
The technique used in the female rat consisted of preparing the animals 48 hours before the actual experiment by effecting the implantation of two catheters in the apex of the bladder and one catheter in the left-hand jugular vein under anaesthetic, with the external end of these catheters being protected and held by a sticking plaster corset.
The animals were placed in suitable cages at the time of the test, which were equipped so as to collect and measure the urine. For each animal one vesical catheter was connected to a pressure sensor, the other to a perfusor which supplied 0.2 ml/min. of sterile physiological serum continuously.
The intravesical pressure was measured continuously during the perfusion and it was possible to observe:
a filling phase of the bladder during which the pressure increased progressively,
a sudden rising phase of this pressure during the contraction of the detrusor: the "threshold" pressure which is the pressure observed just before the pressure of the contraction phase. This threshold pressure was raised in the same way as the urinary volume at each urination.
The study consisted of observing the changes in these parameters by the action of the products (IA) which were administered in solution by intravenous route by means of the catheter placed in the left jugular vein.
Dicyclomine and Baclofen which have been considered for the treatment of hyperactive bladders (Drugs of Today, Vol. 24, no. 5, 1988, p. 337-348) were also used in this test in the form of comparison products.

[1] = tested on: convulsion induced by picrotoxine in mice; experiment: Protection against picrotoxine-induced convulsion (suppression of the tonic extension phase); type: in vivo, male Swiss mice; conditions: for responders at 50 mg/kg / responders at 100 mg/kg / ED50: Mus musculus; for responders at 50 mg/kg: 0.5 h, read-out: i.p.: % prot. (percentage of protected animals), 50 mg/kg i.p., picrotoxine 24 mg/kg i.p. 30 min later; for responders at 100 mg/kg: 1 h, read-out: p.o.: % prot. (percentage of protected animals), 100 mg/kg p.o., picrotoxine 24 mg/kg i.p. 60 min later
Description: The psychotropic properties of the compounds have been determined by the protection of the induced convulsion by picrotoxine for mice, which is achieved by the method derived from that of Krall et al., "Epilepsia", 1978, 19, p. 409-428.
The administration of picrotoxine caused a convulsive crisis in the animal characterised by a myoclonic extension syndrome followed by the extension of the limbs causing the animal to die. Certain substances, particularly those active on the complex GABA/benzodiazepines/Cl-ionophore makes it possible to protect the animals from this convulsive crisis.
In practice the study is carried out on batches of 10 male "Swiss" mice weighing approximately 20 g, which are administered with the product to be studied in aqueous solution either by intraperitoneal route (i.p.) at the rate of 50 mg/kg and in a volume of 0.2 ml of solution per animal, or by oral route (p.o) in a volume of 2.0 ml of solution per animal.
An injection of a solution of picrotoxine at the rate of 24 mg/kg in a volume of 0.2 ml per animal is then administered by interperitoneal route, either 30 minutes after administering the product by interperitoneal route or 60 minutes after administering the product by oral route. The dose of the product injected causing a clonic crisis, which results in untreated animals dying. The suppression of the extension tonic phase in the animals treated under the conditions of the test is observed. The results are expressed:
either in percentages of protected animals of this phase to the reaction of 50 mg/kg of the compound of the study administered by i.p. route or 100 mg/kg by p.o route,
or in DE50 for each of these routes, which is the efficient dosage of the test compound expressed in mg/kg protecting 50% of the animals of this extension phase. The significant value of the results being generally indicated in the following manner:
* Significant result at p<0.05
** Significant result at p<0.01
*** Significant highly significant at p<0.001.

[2] = ip, * p<0.05, ** p<0.01, *** p<0.001
[3] = po, * p<0.05, ** p<0.01, *** p<0.001

## NCC(CC(=O)O)c1ccc(Cl)cc1 (stereo not shown) [Baclofen, reference compound]
Bladder of the rat; read-out: % variation pressure threshold
  change in vivo at 2.5 mg/kg: 113%
Bladder of the rat; read-out: % variation volume
  change in vivo at 2.5 mg/kg: 32%
Bladder of the rat; compared to Dicyclomine and Baclofen
  activity on the urinary tract compared to the reference compounds (in words): most active comparative product in these tests

## CCN(CC)CCOC(=O)C1(C2CCCCC2)CCCCC1 [Dicyclomine, reference compound]
Bladder of the rat; 2,5 mg/kg i.v., read-out: % variation pressure threshold
  change in vivo at 2.5 mg/kg: 28%
Bladder of the rat; 2,5 mg/kg i.v., read-out: % variation volume
  change in vivo at 2.5 mg/kg: 20%

## CCC(CC=Cc1ccccc1)(NC)c1cccc(C(F)(F)F)c1 (stereo not shown) [Example 21, a-cinnamyl-a-ethyl-N-methyl-(m.trifluoromethyl)benzylamine]
[1]; [2]
  responders at 50 mg/kg: 90%
[1]; [3]
  responders at 100 mg/kg: 70%

## CC(N)(CC=Cc1ccc(Cl)c(Cl)c1)c1ccccc1 (stereo not shown) [Example 9, a-(3',4'-dichloro) cinnamyl-a-methylbenzylamine]
[1]; [2]
  responders at 50 mg/kg: 100%

## CCC(N)(CC=Cc1ccccc1)c1ccc(Cl)cc1 (single isomer, unassigned; (+)) [Example 17A, (+) a-cinnamyl-a-ethyl-p.chlorobenzylamine]
[1]; [2]
  responders at 50 mg/kg: 80%
[1]; [3]
  responders at 100 mg/kg: 50%

## CN(C)C(C)(CC=Cc1ccc(Cl)c(Cl)c1)c1ccccc1 (stereo not shown) [Example 48, a-(3.4 dichloro)cinnamyl-N,N-dimethyl-a-methyl-benzylamine]
[1]; [2]
  responders at 50 mg/kg: 90%

## CCC(CC=Cc1ccccc1)(NC)c1ccccc1 (stereo not shown) [Example 18, a-cinnamyl-a-ether-N-methyl-benzylamine]
[1]; [2]
  responders at 50 mg/kg: 80%
[1]; [3]
  responders at 100 mg/kg: 100%

## CCC(N)(CC=Cc1ccc(Cl)c(Cl)c1)c1ccc(OC)cc1 (stereo not shown) [Example 13]
[1]; ip, read-out: i.p.: DE50
  ED50: 23.2 mg/kg
[1]; [3]
  responders at 100 mg/kg: 50%

## CCC(CC=Cc1cccs1)(c1cccs1)N(C)C (stereo not shown) [Example 65, N,N-dimethyl-a-ethyl-a-[3-(2-thienyl)-2-propenyl]-2-thienylmethylamine]
[1]; [2]
  responders at 50 mg/kg: 90%
[1]; [3]
  responders at 100 mg/kg: 50%

## CCC(CC=Cc1ccccc1)(NC)c1ccc(Cl)c(Cl)c1 (stereo not shown) [Example 20, a-cinnamyl-a-ethyl-N-methyl-3,4-dichlorobenzylamine]
[1]; [3]
  responders at 100 mg/kg: 80%

## CCC(CC=Cc1ccccc1)(c1ccco1)N(C)C (stereo not shown) [Example 59, a-cinnamyl-N,N-dimethyl-a-ethyl-2-furfurylamine]
[1]; [2]
  responders at 50 mg/kg: 90%
[1]; [3]
  responders at 100 mg/kg: 100%

## CCC(C[C@@H]1C[C@H]1c1ccccc1)(c1ccccn1)N(C)C (relative stereo) [Example 58, trans N,N-dimethyl-a-ethyl-a-(2-phenyl-1-cyclopropylmethyl)-(2-pyridyl)methanamine]
[1]; [2]
  responders at 50 mg/kg: 70%
[1]; [3]
  responders at 100 mg/kg: 80%

## CCC(CC=Cc1ccco1)(c1cccs1)N(C)C (stereo not shown) [Example 64, N,N-dimethyl-a-ethyl-a-[3-(2-furyl)-2-propenyl]-2-thienylmethylamine]
[1]; [2]
  responders at 50 mg/kg: 70%
[1]; [3]
  responders at 100 mg/kg: 50%

## CCC(N)(CC=Cc1ccccc1)c1ccc(Cl)cc1 (stereo not shown) [Example 4, a-cinnamyl-a-ethyl-p.chlorobenzylamine]
[1]; [2]
  responders at 50 mg/kg: 60%

## CCC(N)(CC=Cc1ccccc1)c1cccc(C(F)(F)F)c1 (stereo not shown) [Example 7, a-cinnamyl-a-ethyl-(m.trifluoromethyl)benzylamine]
[1]; [2]
  responders at 50 mg/kg: 100%

## CCC(CC=Cc1ccsc1)(c1ccccc1)N(C)C (stereo not shown) [Example 56, N,N-dimethyl-a-ethyl-a-[30(3-thienyl)-2-propenyl]-benzylamine]
[1]; [2]
  responders at 50 mg/kg: 70%
[1]; [3]
  responders at 100 mg/kg: 80%

## CCC(CC=Cc1ccccc1)(NC)c1ccccc1 (single isomer, unassigned; (+)) [Example 29, (+) a-cinnamyl-a-ethyl-N-methyl benzylamine]
[1]; 50 mg/kg i.p., picrotoxine 24 mg/kg i.p. 30 min later, * p<0.05, ** p<0.01, *** p<0.001
  i.p.: % prot. (percentage of protected animals): 100%

## CCC(C[C@@H]1C[C@H]1c1ccccc1)(c1cc(OC)c(OC)c(OC)c1)N(C)C (relative stereo) [Example 54, trans N,N-dimethyl-a-ethyl-a-(2-phenyl-1-cyclopropylmethyl)-3,4,5-trimethoxybenzylamine]
[1]; [2]
  responders at 50 mg/kg: 70%

## CCC(N)(CC=Cc1ccccc1)c1ccc(OC)cc1 (stereo not shown) [Example 8, a-cinnamyl-a-ethyl-p.metoxybenzylamine]
[1]; [2]
  responders at 50 mg/kg: 80%

## C=CCN(C)C(CC)(CC=Cc1ccccc1)c1ccccc1 (stereo not shown) [Example 38, N-allyl-a-cinnamyl-a-ethyl-N-methylbenzylamine]
[1]; [2]
  responders at 50 mg/kg: 80%

## CCC(CC=Cc1ccccc1)(c1ccsc1)N(C)C (stereo not shown) [Example 67, a-cinnamyl-N,N-dimethyl-a-ethyl-3-thienylmethylamine]
[1]; [2]
  responders at 50 mg/kg: 70%
[1]; [3]
  responders at 100 mg/kg: 100%

## CCC(CC=Cc1cccs1)(c1ccsc1)N(C)C (stereo not shown) [Example 69, N,N-dimethyl-a-ethyl-a-[3-(2-thienyl)-2-propenyl]-3-thienylmethylamine]
[1]; [2]
  responders at 50 mg/kg: 90%
[1]; [3]
  responders at 100 mg/kg: 80%

## CCC(C[C@@H]1C[C@H]1c1ccccc1)(c1ccco1)N(C)C (relative stereo) [Example 60, trans N,N-dimethyl-a-ethyl-a-(2-phenyl-1-cyclopropylmethyl)-2-furfurylamine]
[1]; [2]
  responders at 50 mg/kg: 80%
[1]; [3]
  responders at 100 mg/kg: 60%

## CN(C)C(C)(CC=Cc1ccccc1)c1ccccc1 (stereo not shown) [Example 40, a-cinnamyl-N,N-dimethyl-a-methyl-benzylamine]
[1]; ip, read-out: i.p.: DE50
  ED50: 16.6 mg/kg
[1]; po, read-out: p.o.: DE50
  ED50: 37.7 mg/kg

## CCC(CC=Cc1ccccc1)(c1ccccc1)N(C)C (single isomer, unassigned; (-)) [Example 49, (-)a-cinnamyl-N,N-dimethyl-a-ethylbenzylamine]
[1]; [2]
  responders at 50 mg/kg: 100%
[1]; [3]
  responders at 100 mg/kg: 100%

## CCC(N)(CC=Cc1ccc(Cl)c(Cl)c1)c1ccccc1 (stereo not shown) [Example 10, a-(3',4'-dichloro) cinnamyl-a-ethyl-benzylamine]
[1]; [2]
  responders at 50 mg/kg: 90%

## CCC(N)(CC=Cc1ccc(Cl)c(Cl)c1)c1ccc(C)cc1 (stereo not shown) [Example 12, a-(3',4'-dichloro)cinnamyl-a-ethyl-p.methylbenzylamine]
[1]; ip, read-out: i.p.: DE50
  ED50: 37.3 mg/kg
[1]; po, read-out: p.o.: DE50
  ED50: 50 mg/kg

## CCC(N)(CC=Cc1ccc(Cl)c(Cl)c1)c1cccc(C(F)(F)F)c1 (stereo not shown) [Example 15, a-(3',4'-dichloro)cinnamyl-a-ethyl-m.trifluoromethylbenzylamin]
[1]; ip, read-out: i.p.: DE50
  ED50: > 25 mg/kg

## CCC(CC=Cc1ccccc1)(c1ccc(C(F)(F)F)cc1)N(C)C (stereo not shown) [Example 34, a-cinnamyl-N,N-dimethyl-a-ethyl-p.trifluoromethylbenzylamine]
[1]; [2]
  responders at 50 mg/kg: 80%
[1]; [3]
  responders at 100 mg/kg: 60%

## CCC(CC=Cc1ccccc1)(NC)c1ccc(OC)cc1 (stereo not shown) [Example 22, a-cinnamyl-a-ethyl-N-methyl-p.methoxybenzylamine]
[1]; [2]
  responders at 50 mg/kg: 80%
[1]; [3]
  responders at 100 mg/kg: 100%

## CCCN(C)C(CC)(CC=Cc1ccccc1)c1ccccc1 (stereo not shown) [Example 47, a-cinnamyl-a-ethyl-N-methyl-N-propylbenzylamine]
[1]; ip, read-out: i.p.: DE50
  ED50: 58.2 mg/kg
[1]; po, read-out: p.o.: DE50
  ED50: 65 mg/kg
